Assay results from patent US12065445B2, “CDK2 inhibitors and methods of using the same” (Cedilla Therapeutics, Inc., priority 2021, dated 2024).

Tested on: Kuramochi cells
Assay: BrdU Cell Proliferation Assay
Format: cell-based
Conditions: read-out: BrdU - KURAMOCHI.1: IC50
Protocol: A BrdU assay was used as a measure of proliferation based on the DNA replication process of proliferating cells. BrdU, a pyrimidine analog, is added to the cell culture and incorporated into the DNA of proliferating cells. The presence of the BrdU analog was then measured through a colorimetric ELISA. After fixation and permeabilization of cells, peroxidase-conjugated antibody recognizing BrdU is added and allowed to incubate, followed by thorough washing to remove unbound antibody. In order to quantify the amount of bound antibody, peroxidase substrate is added and produces a color that can be measured at 450 nm.
On day −1, Kuramochi cells (Sekisui XenoTech JCRB0098) were seeded at 2,000 cells/well in columns 2-12 of a 96 well plate (Corning, CLS3596) in 150 μL media and allowed to adhere overnight at 37 degree with 5% CO2.
On day 0, the source plate was prepared by adding 10 mM compounds and performing 3-fold serial dilutions for a 10-point dose response of each compound. Using a multichannel pipette, 2 μL of the contents of the source plate were stamped into an intermediate plate with 500 μL of RPMI 1640 Media, GlutaMAX Supplement (Life Technologies, 61870127) in each well of a Nunc 96 DeepWell™ plate, non-treated 96 DeepWell plate, 2 mL/well, sterile, natural, 60/cs (Sigma Z717274) and mixed thoroughly. 50 μL from each well of this intermediate plate were added to 4 wells of a 96-well plate with previously seeded Kuramochi cells.
On day 4, the plates were developed using the BrdU ELISA Cell Proliferation Assay according to manufacturer's instructions (Roche, 11647229001). Briefly, BrdU was diluted 1:100 in Gibco®, OptiMEM® and 20 μL/well was added, shaken for 10 minutes at 350 rpm, and then returned to the incubator for 1 hour. Following incubation, the medium was discarded, and the cells were fixed by adding 200 μL of Fix/Denature solution. The anti-BrdU peroxidase antibody was diluted 1:1000 in OptiMEM, added at 100 μL/well, and incubated while shaking (350 rpm) for one hour. Three washes with PBS were performed to remove any unbound antibody, followed by the addition of 100 μL of substrate solution to each well. 25 μL/well of 1M sulfuric acid solution was then added to halt the reaction, and plates were read out using an Envision spectrophotometer (Perkin Elmer) set to read 450 nm absorbance. Background absorbance values from empty wells were subtracted from all samples and then normalized to DMSO treated wells.

SMILES: CNC(=O)[C@@H](NC(=O)C1CN(C(=O)c2cnn(Cc3ccccc3)c2)CC12CN(C(=O)C1CC1(C)C)C2)[C@@H](C)OCC1CCCCC1 (mixture of isomers) [I-12]
- IC50: 0.5 to 5 µM

SMILES: C[C@H](CNC(=O)C1CN(C(=O)c2cnn(Cc3ccccc3)c2)CC12CN(C(=O)C1CC1(C)C)C2)OCc1ccccc1 (stereo partly drawn) [I-7]
- IC50: > 10 µM

SMILES: C[C@@H](OCc1ccccc1)[C@H](NC(=O)C1CN(C(=O)c2cnn(Cc3ccccc3)c2)CC12CN(C(=O)[C@H]1CC1(C)C)C2)C(=O)O (stereo partly drawn) [I-9, (2S,3R)-2-(6-(1-benzyl-1H-pyrazole-4-carbonyl)-2-((S)-2,2-dimethylcyclopropanecarbonyl)-2,6-diazaspiro[3.4]octane-8-carboxamido)-3-(benzyloxy)butanoic acid]
- IC50: > 10 µM

SMILES: CNC(=O)[C@@H](NC(=O)C1CN(C(=O)c2cnn(Cc3cccnc3)c2)CC12CN(C(=O)C1CC1(C)C)C2)[C@@H](C)OCc1ccccc1 (stereo partly drawn) [I-15]
- IC50: > 10 µM

SMILES: CNC(=O)[C@@H](NC(=O)[C@@H]1CN(Cc2cnn(Cc3ccccc3)c2)CC12CN(C(=O)[C@H]1CC1(C)C)C2)[C@@H](C)OCc1ccccc1 [I-16A]
- IC50: > 10 µM

SMILES: CNC(=O)[C@@H](NC(=O)[C@H]1CN(Cc2cnn(Cc3ccccc3)c2)CC12CN(C(=O)[C@H]1CC1(C)C)C2)[C@@H](C)OCc1ccccc1 [I-16B]
- IC50: > 10 µM

SMILES: CNC(=O)[C@@H](NC(=O)[C@@H]1CN(C(=O)c2cnn(CC3CCN(C(C)=O)CC3)c2)CC12CN(C(=O)[C@H]1CC1(C)C)C2)[C@@H](C)OCc1ccccc1 [I-17A]
- IC50: > 10 µM

SMILES: CNC(=O)[C@@H](NC(=O)[C@H]1CN(C(=O)c2cnn(CC3CCN(C(C)=O)CC3)c2)CC12CN(C(=O)[C@H]1CC1(C)C)C2)[C@@H](C)OCc1ccccc1 [I-17B]
- IC50: > 10 µM

SMILES: CNC(=O)[C@@H](NC(=O)[C@@H]1CN(C(=O)c2cnn(CC3CCNCC3)c2)CC12CN(C(=O)[C@H]1CC1(C)C)C2)[C@@H](C)OCc1ccccc1 [I-19A]
- IC50: > 10 µM

SMILES: CNC(=O)[C@@H](NC(=O)[C@H]1CN(C(=O)c2cnn(CC3CCNCC3)c2)CC12CN(C(=O)[C@H]1CC1(C)C)C2)[C@@H](C)OCc1ccccc1 [I-19B]
- IC50: > 10 µM

SMILES: C[C@@H](OCc1ccccc1)[C@H](NC(=O)C1CN(C(=O)c2cnn(Cc3ccccc3)c2)CC12CN(C(=O)[C@H]1CC1(C)C)C2)C(=O)NCC#CCO (stereo partly drawn) [I-20]
- IC50: > 10 µM

SMILES: C[C@@H](OCc1ccccc1)C(NC(=O)C1CN(C(=O)c2cnn(Cc3ccccc3)c2)CC12CN(C(=O)[C@H]1CC1(C)C)C2)C(=O)NCCOCCOCCO (stereo partly drawn) [I-21]
- IC50: > 10 µM

SMILES: C[C@@H]1C[C@H](C)CN(C(=O)[C@@H](NC(=O)C2CN(C(=O)c3cnn(Cc4ccccc4)c3)CC23CN(C(=O)[C@H]2CC2(C)C)C3)[C@@H](C)OCc2ccccc2)C1 (stereo partly drawn) [I-22]
- IC50: 0.5 to 5 µM

SMILES: CNC(=O)[C@@H](NC(=O)[C@@H]1CN(C(=O)c2cnn(CC3CCN(C)CC3)c2)CC12CN(C(=O)[C@H]1CC1(C)C)C2)[C@@H](C)OCc1ccccc1 [I-23A]
- IC50: > 10 µM

SMILES: CNC(=O)[C@@H](NC(=O)[C@H]1CN(C(=O)c2cnn(CC3CCN(C)CC3)c2)CC12CN(C(=O)[C@H]1CC1(C)C)C2)[C@@H](C)OCc1ccccc1 [I-23B]
- IC50: > 10 µM

SMILES: CNC(=O)[C@@H](NC(=O)[C@@H]1CN(C(=O)c2cncs2)CC12CN(C(=O)[C@H]1CC1(C)C)C2)[C@@H](C)OCc1ccccc1 [I-24A, (S)—N-((2S,3R)-3-(benzyloxy)-1-(methylamino)-1-oxobutan-2-yl)-2-((S)-2,2-dimethylcyclopropane-1-carbonyl)-6-(thiazole-5-carbonyl)-2,6-diazaspiro[3.4]octane-8-carboxamide]
- IC50: > 10 µM

SMILES: CNC(=O)[C@@H](NC(=O)[C@H]1CN(C(=O)c2cncs2)CC12CN(C(=O)[C@H]1CC1(C)C)C2)[C@@H](C)OCc1ccccc1 [I-24B]
- IC50: > 10 µM

SMILES: CNC(=O)[C@@H](NC(=O)[C@@H]1CN(C(=O)c2cnn(Cc3ccccc3)c2)CC12CN(C(=O)Cc1ccccc1)C2)[C@@H](C)OCc1ccccc1 [I-25A, (S)-6-(1-benzyl-1H-pyrazole-4-carbonyl)-N-((2S,3R)-3-(benzyloxy)-1-(methylamino)-1-oxobutan-2-yl)-2-(2-phenylacetyl)-2,6-diazaspiro[3.4]octane-8-carboxamide]
- IC50: > 10 µM

SMILES: CNC(=O)[C@@H](NC(=O)[C@H]1CN(C(=O)c2cnn(Cc3ccccc3)c2)CC12CN(C(=O)Cc1ccccc1)C2)[C@@H](C)OCc1ccccc1 [I-25B]
- IC50: > 10 µM

SMILES: CNC(=O)[C@@H](NC(=O)[C@@H]1CN(C(=O)c2cnn(Cc3ccccc3)c2)CC12CN(C(=O)c1ccccc1)C2)[C@@H](C)OCc1ccccc1 [I-26A]
- IC50: > 10 µM

SMILES: CNC(=O)[C@@H](NC(=O)[C@H]1CN(C(=O)c2cnn(Cc3ccccc3)c2)CC12CN(C(=O)c1ccccc1)C2)[C@@H](C)OCc1ccccc1 [I-26B]
- IC50: > 10 µM

SMILES: CNC(=O)[C@@H](NC(=O)[C@@H]1CN(C(=O)c2cnn(Cc3ccccc3)c2)CC12CN(C(=O)CC1CCC1)C2)[C@@H](C)OCc1ccccc1 [I-27A]
- IC50: > 10 µM

SMILES: CNC(=O)[C@@H](NC(=O)[C@H]1CN(C(=O)c2cnn(Cc3ccccc3)c2)CC12CN(C(=O)CC1CCC1)C2)[C@@H](C)OCc1ccccc1 [I-27B]
- IC50: > 10 µM

SMILES: C[C@@H](OCc1ccccc1)[C@H](NC(=O)C1CN(C(=O)c2cnn(Cc3ccccc3)c2)CC12CN(C(=O)[C@H]1CC1(C)C)C2)C(=O)NCC#CCN (stereo partly drawn) [I-28]
- IC50: > 10 µM

SMILES: C[C@@H](OCc1ccccc1)[C@H](NC(=O)C1CN(C(=O)c2cnn(Cc3ccccc3)c2)CC12CN(C(=O)[C@H]1CC1(C)C)C2)C(=O)NCCC(=O)O (stereo partly drawn) [I-29]
- IC50: > 10 µM

SMILES: C[C@@H](OCc1ccccc1)[C@H](NC(=O)C1CN(C(=O)c2cnn(Cc3ccccc3)c2)CC12CN(C(=O)[C@H]1CC1(C)C)C2)C(=O)NCCO (stereo partly drawn) [I-30]
- IC50: > 10 µM

SMILES: C[C@@H](OCc1ccccc1)[C@H](NC(=O)C1CN(C(=O)c2cnn(Cc3ccccc3)c2)CC12CN(C(=O)[C@H]1CC1(C)C)C2)C(=O)NCCN (stereo partly drawn) [I-31]
- IC50: > 10 µM

SMILES: C[C@@H](OCc1ccccc1)[C@H](NC(=O)C1CN(C(=O)c2cnn(Cc3ccccc3)c2)CC12CN(C(=O)[C@H]1CC1(C)C)C2)C(=O)N1CCNCC1 (stereo partly drawn) [I-32]
- IC50: > 10 µM

SMILES: CNC(=O)[C@@H](NC(=O)[C@@H]1CN(C(=O)c2cnn(C)c2)CC12CN(C(=O)[C@H]1CC1(C)C)C2)[C@@H](C)OCc1ccccc1 [I-33A]
- IC50: > 10 µM

SMILES: CNC(=O)[C@@H](NC(=O)[C@H]1CN(C(=O)c2cnn(C)c2)CC12CN(C(=O)[C@H]1CC1(C)C)C2)[C@@H](C)OCc1ccccc1 [I-33B]
- IC50: > 10 µM

SMILES: CNC(=O)[C@@H](NC(=O)[C@@H]1CN(C(=O)C2CCOCC2)CC12CN(C(=O)[C@H]1CC1(C)C)C2)[C@@H](C)OCc1ccccc1 [I-38A]
- IC50: > 10 µM

SMILES: CNC(=O)[C@@H](NC(=O)[C@H]1CN(C(=O)C2CCOCC2)CC12CN(C(=O)[C@H]1CC1(C)C)C2)[C@@H](C)OCc1ccccc1 [I-38B]
- IC50: > 10 µM

SMILES: CNC(=O)[C@@H](NC(=O)[C@H]1CN(C(=O)c2cnco2)CC12CN(C(=O)[C@H]1CC1(C)C)C2)[C@@H](C)OCc1ccccc1 [I-39B]
- IC50: > 10 µM

SMILES: CNC(=O)[C@@H](NC(=O)[C@@H]1CN(Cc2ccccn2)CC12CN(C(=O)[C@H]1CC1(C)C)C2)[C@@H](C)OCc1ccccc1 [I-40A]
- IC50: > 10 µM

SMILES: CNC(=O)[C@@H](NC(=O)[C@H]1CN(Cc2ccccn2)CC12CN(C(=O)[C@H]1CC1(C)C)C2)[C@@H](C)OCc1ccccc1 [I-40B]
- IC50: > 10 µM

SMILES: CNC(=O)[C@@H](NC(=O)[C@@H]1CN(C(=O)c2cn[nH]c2)CC12CN(C(=O)CC1CC1)C2)[C@@H](C)OCc1ccccc1 [I-41A, (S)—N-((2S,3R)-3-(benzyloxy)-1-(methylamino)-1-oxobutan-2-yl)-2-(2-cyclopropylacetyl)-6-(1H-pyrazole-4-carbonyl)-2,6-diazaspiro[3.4]octane-8-carboxamide]
- IC50: > 10 µM

SMILES: CNC(=O)[C@@H](NC(=O)[C@H]1CN(C(=O)c2cn[nH]c2)CC12CN(C(=O)CC1CC1)C2)[C@@H](C)OCc1ccccc1 [I-41B]
- IC50: > 10 µM

SMILES: CNC(=O)[C@@H](NC(=O)[C@@H]1CN(C(=O)c2cccnc2)CC12CN(C(=O)[C@H]1CC1(C)C)C2)[C@@H](C)OCc1ccccc1 [I-42A]
- IC50: > 10 µM

SMILES: CNC(=O)[C@@H](NC(=O)[C@H]1CN(C(=O)c2cccnc2)CC12CN(C(=O)[C@H]1CC1(C)C)C2)[C@@H](C)OCc1ccccc1 [I-42B]
- IC50: > 10 µM

SMILES: CNC(=O)[C@@H](NC(=O)[C@@H]1CN(C(=O)c2cnn(CC(F)(F)F)c2)CC12CN(C(=O)CC1CC1)C2)[C@@H](C)OCc1ccccc1 [I-43A]
- IC50: > 10 µM

SMILES: CNC(=O)[C@@H](NC(=O)[C@H]1CN(C(=O)c2cnn(CC(F)(F)F)c2)CC12CN(C(=O)CC1CC1)C2)[C@@H](C)OCc1ccccc1 [I-43B]
- IC50: > 10 µM

SMILES: CNC(=O)[C@@H](NC(=O)[C@@H]1CN(C(=O)c2cnc[nH]2)CC12CN(C(=O)[C@H]1CC1(C)C)C2)[C@@H](C)OCc1ccccc1 [I-44A]
- IC50: > 10 µM
